Laboratory results: patent publication US20250215029A1 (Recludix Pharma, Inc., priority 2022, published 2025)
Where two headings read alike, the source gives them in different places.

Assays:
pY705-STAT3 in PBMC = target: T1, pY705-STAT3 in PBMC (Homo sapiens, UniProt P40763); test: MSD-pSTAT-PBMC Assay (pSTAT3, IL-6 stimulated); type: cell-based; conditions: PBMC, compound 3 hrs, then 10 ng/mL IL-6 for 10 min; Table 115; read-out: STAT3
T1 construct: Cryopreserved Peripheral Blood Mononuclear Cells (PBMC) are from AllCells; host or cells: cryopreserved PBMC
T1 sequence (P40763 whole entry): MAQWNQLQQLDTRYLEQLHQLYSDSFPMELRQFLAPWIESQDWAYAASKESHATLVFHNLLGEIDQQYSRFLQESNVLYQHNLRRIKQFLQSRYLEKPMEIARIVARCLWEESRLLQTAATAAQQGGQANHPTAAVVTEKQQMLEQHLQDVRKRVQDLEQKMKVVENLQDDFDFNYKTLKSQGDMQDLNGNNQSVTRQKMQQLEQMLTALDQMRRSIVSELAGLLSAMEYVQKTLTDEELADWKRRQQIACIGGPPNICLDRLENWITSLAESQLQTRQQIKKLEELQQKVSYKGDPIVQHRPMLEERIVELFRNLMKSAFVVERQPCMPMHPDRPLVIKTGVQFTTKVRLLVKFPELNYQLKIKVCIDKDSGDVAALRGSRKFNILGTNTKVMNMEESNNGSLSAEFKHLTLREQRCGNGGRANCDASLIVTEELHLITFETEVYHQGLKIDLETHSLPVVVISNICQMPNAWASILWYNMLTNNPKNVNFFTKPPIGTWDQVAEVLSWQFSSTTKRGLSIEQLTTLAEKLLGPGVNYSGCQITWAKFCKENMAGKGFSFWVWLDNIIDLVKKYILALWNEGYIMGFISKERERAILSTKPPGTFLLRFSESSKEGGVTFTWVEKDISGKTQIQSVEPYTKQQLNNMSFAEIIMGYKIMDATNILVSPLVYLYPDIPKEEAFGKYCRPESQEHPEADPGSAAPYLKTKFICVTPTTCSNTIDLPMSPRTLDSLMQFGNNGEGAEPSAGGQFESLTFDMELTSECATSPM
From the text: Cryopreserved Peripheral Blood Mononuclear Cells (PBMC) are from AllCells. Recombinant Human IL-4 and IL-6 are from Peprotech. Mouse monoclonal anti-STAT3 antibody, rabbit monoclonal anti-pY705-STAT3 antibody, rabbit monoclonal Anti-pY641-STAT6 antibody, and lysis buffer are from Cell Signaling Technology (CST). Mouse monoclonal anti-STAT6 antibody is from BioLegend. Assay plates, blocker, and anti-rabbit secondary antibody are from Meso Scale Discovery (MSD).
Cyropreserved PBMCs were thawed out and allowed to recover overnight in IMDM+10% heat-inactivated FBS prior to plating 50,000 (STAT3) or 25,000 (STAT6) cells per well in 96-well U-bottom tissue culture plates. Cells were treated with compound for 3 hrs, then stimulated with 10 ng/mL IL-6 (STAT3) or 1 ng/mL IL-4 (STAT6) for 10 min. Cells were then spun down and washed with ice-cold PBS prior to lysing the cell pellet with 1× lysis buffer (CST) with 1× HALT protease and phosphatase inhibitor cocktail (Thermo). Lysates were transferred to and incubated overnight at 4° C. with shaking in QuickPlex 96-well high bind assay plates (MSD) pre-coated overnight with 30 μL per well of 0.6 μg/mL mouse monoclonal anti-STAT3 antibody (STAT3) or 2 μg/mL mouse monoclonal anti-STAT6 antibody (STAT6) in 1× PBS, and pre-blocked for 1 hour with 3% Blocker-A (MSD). Captured protein in the assay plates were then washed and probed with 25 μL per well of […] rabbit monoclonal anti-pY705-STAT3 antibody (STAT3) or 0.18 μg/ml rabbit monoclonal Anti-pY641-STAT6 antibody (STAT6) in 1% Blocker-A for 1 hour at room temperature with shaking, then washed and probed with 25 ul per well of 1 ug/ml Sulfo-TAG Labeled Goat Anti-Rabbit Antibody (MSD) in 1% Blocker-A for 1 hour at room temperature with shaking. Assay plates were then washed and 150 μL of 1× Read Buffer-T (MSD) was added to each well prior to reading on an SQ120 MSD Plate Reader. Assay signal from each sample was subtracted by the signal from unstimulated control wells and normalized to DMSO control wells. IC50 values were calculated using Graph Pad Prism Dose-Response Nonlinear Regression with variable slope. For both pSTAT3 and pSTAT6 A=≤100 nM; B 100-1000 nM; C=>1000-3000 nM; D=>3 μM; and NT=Not Tested.

[1] = target: T2, Recombinant STAT6 protein (STAT6 (W123-T658)) (Homo sapiens, UniProt P42226); test: STAT6 Fluorescence Polarization (FP) Assay; type: binding; conditions: STAT6 (W123-T658) 250 nM, 45-minute incubation, read-out: STAT6 (FP assay IC50 class)
T2 construct: Recombinant STAT6 protein (STAT6 (W123-T658))
T2 sequence (P42226 123-658): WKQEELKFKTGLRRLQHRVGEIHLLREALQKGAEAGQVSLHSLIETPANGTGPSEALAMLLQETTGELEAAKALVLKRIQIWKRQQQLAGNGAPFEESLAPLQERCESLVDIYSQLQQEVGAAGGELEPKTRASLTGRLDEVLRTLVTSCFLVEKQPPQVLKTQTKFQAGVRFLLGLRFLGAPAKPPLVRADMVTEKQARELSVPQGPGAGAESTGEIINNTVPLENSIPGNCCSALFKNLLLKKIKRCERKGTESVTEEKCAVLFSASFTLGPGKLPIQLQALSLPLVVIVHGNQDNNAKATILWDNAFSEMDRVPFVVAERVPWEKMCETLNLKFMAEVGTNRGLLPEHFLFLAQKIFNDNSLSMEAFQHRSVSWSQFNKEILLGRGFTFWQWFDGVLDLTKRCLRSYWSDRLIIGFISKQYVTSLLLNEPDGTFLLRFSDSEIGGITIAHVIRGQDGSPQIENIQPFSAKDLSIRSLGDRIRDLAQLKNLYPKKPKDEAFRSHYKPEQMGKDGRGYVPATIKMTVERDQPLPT
How it was run: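 Protein-probe mix (250 nM STAT6 W123-T658, 2 nM 5-FAM-pTyr peptide) in 10 mM HEPES pH 7.4, 50 mM NaCl, 1 mM EDTA, 0.05% Tween 20, 2 mM DTT; added to compound dilution series, 1% DMSO final; 45 min RT; FP read; IC50 via nonlinear regression.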

[2] = target: T3, Recombinant STAT3 protein (STAT3 (G127-I722)) (Homo sapiens, UniProt P40763); test: STAT3 Fluorescence Polarization (FP) Assay; type: binding; conditions: STAT3 (G127-I722) 25 nM, probe 5-FAM-GpYLPQTV-NH2 2 nM, 45-minute incubation; read-out: STAT3 (FP assay IC50 class)
T3 construct: Recombinant STAT3 protein (STAT3 (G127-I722))
T3 sequence (P40763 127-722): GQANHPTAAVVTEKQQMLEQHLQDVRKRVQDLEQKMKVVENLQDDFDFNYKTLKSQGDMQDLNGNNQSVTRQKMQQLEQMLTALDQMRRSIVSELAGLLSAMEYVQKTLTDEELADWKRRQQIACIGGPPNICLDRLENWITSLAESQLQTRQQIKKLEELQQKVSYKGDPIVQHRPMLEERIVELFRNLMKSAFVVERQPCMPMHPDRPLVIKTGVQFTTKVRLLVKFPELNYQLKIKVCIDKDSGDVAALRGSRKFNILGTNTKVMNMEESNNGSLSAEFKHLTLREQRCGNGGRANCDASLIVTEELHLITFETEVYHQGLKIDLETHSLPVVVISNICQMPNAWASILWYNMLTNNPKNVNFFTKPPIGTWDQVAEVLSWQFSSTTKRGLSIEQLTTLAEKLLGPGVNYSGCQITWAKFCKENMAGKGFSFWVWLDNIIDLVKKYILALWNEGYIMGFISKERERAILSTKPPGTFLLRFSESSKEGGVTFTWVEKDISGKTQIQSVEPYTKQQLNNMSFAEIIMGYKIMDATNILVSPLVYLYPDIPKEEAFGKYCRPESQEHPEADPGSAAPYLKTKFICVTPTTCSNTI
How it was run: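 Compounds in serial dilution receive a premix of STAT3 (G127-I722, 25 nM) and fluorescent phosphotyrosine peptide 5-FAM-GpYLPQTV-NH2 (2 nM) at pH 7.4. After 45 min at room temperature, FP is measured and IC50 derived by nonlinear regression.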

[3] = probe 5-FAM-ApYKPFQDLI-NH2 2 nM

| IC50 ([1]; probe 5-FAM-Ap[…]-NH2 2 nM) [nM] | IC50 [2] [nM] | Compound | IC50 (pY705-STAT3 in PBMC) [nM] | IC50 [1, 3] [nM] |
| --- | --- | --- | --- | --- |
|  |  | CCCOC(=O)[C@H](C)N[P@](=O)(Oc1ccccc1)[C@@H](F)c1ccc2sc(C(=O)N[C@H]3CCC[C@H]4CC[C@@H](C(=O)N5CC(c6cccnc6)C5)N4C3=O)cc2c1 (single isomer, unassigned) [Compound 446] | < 100 |  |
|  |  | CCCOC(=O)[C@H](C)N[P@@](=O)(Oc1ccccc1)[C@H](F)c1ccc2sc(C(=O)N[C@H]3CCC[C@H]4CC[C@@H](C(=O)N5CC(c6cccnc6)C5)N4C3=O)cc2c1 (single isomer, unassigned) [Compound 463] | < 100 |  |
|  |  | COc1ccncc1C1CN(C(=O)[C@@H]2CC[C@@H]3CCC[C@H](NC(=O)c4cc5cc([C@@H](F)[P@@](=O)(N[C@@H](C)C(=O)OC(C)C)Oc6ccccc6)ccc5s4)C(=O)N32)C1 (single isomer, unassigned) [Compound 955] | < 100 |  |
|  |  | COc1ccncc1C1CN(C(=O)[C@@H]2CC[C@@H]3CCC[C@H](NC(=O)c4cc5cc([C@@H](F)[P@@](=O)(N[C@@H](C)C(=O)OC(C)C)Oc6ccccc6)ccc5s4)C(=O)N32)C1 (single isomer, unassigned) [Compound 956] | < 100 |  |
|  |  | COc1ccncc1C1CN(C(=O)[C@@H]2CC[C@@H]3CCC[C@H](NC(=O)c4cc5cc([C@H](F)[P@@](=O)(N[C@@H](C)C(=O)OCC(C)(C)C)Oc6ccccc6)ccc5s4)C(=O)N32)C1 (single isomer, unassigned) [Compound 959] | < 100 |  |
|  |  | COc1ccncc1C1CN(C(=O)[C@@H]2CC[C@@H]3CCC[C@H](NC(=O)c4cc5cc([C@H](F)[P@](=O)(N[C@@H](C)C(=O)OCC(C)(C)C)Oc6ccccc6)ccc5s4)C(=O)N32)C1 (single isomer, unassigned) [Compound 960] | 100 to 1000 |  |
|  |  | CCCOC(=O)[C@H](C)N[P@](=O)(Oc1ccccc1)[C@H](F)c1ccc2sc(C(=O)N[C@H]3CCC[C@H]4CC[C@@H](C(=O)N5CC(c6cnccc6F)C5)N4C3=O)cc2c1 (single isomer, unassigned) [Compound 997] | < 100 |  |
|  |  | CCCOC(=O)[C@H](C)N[P@](=O)(Oc1ccccc1)[C@H](F)c1ccc2sc(C(=O)N[C@H]3CCC[C@H]4CC[C@@H](C(=O)N5CC(c6cnccc6F)C5)N4C3=O)cc2c1 (single isomer, unassigned) [Compound 998] | < 100 |  |
|  |  | CCCOC(=O)[C@H](C)N[P@](=O)(Oc1ccccc1)[C@H](F)c1ccc2sc(C(=O)N[C@H]3CCC[C@H]4CC[C@@H](C(=O)N5CC(c6cnccc6OC)C5)N4C3=O)cc2c1 (single isomer, unassigned) [Compound 999] | < 100 |  |
|  |  | CCCOC(=O)[C@H](C)N[P@@](=O)(Oc1ccccc1)[C@H](F)c1ccc2sc(C(=O)N[C@H]3CCC[C@H]4CC[C@@H](C(=O)N5CC(c6cnccc6C)C5)N4C3=O)cc2c1 (single isomer, unassigned) [Compound 1000] | < 100 |  |
| 3000 to 30000 | 100 to 1000 | NC(=O)Cc1cc(-c2ccccc2)ccc1NC(=O)[C@@H]1CCC2CCC[C@H](NC(=O)c3cc4cc(C(F)(F)P(=O)(O)O)ccc4s3)C(=O)N21 (stereo partly drawn) [Compound 1122, ((2-(((35,6S)-3-((3-(2-amino-2-oxoethyl)-[1,1′-biphenyl]-4-yl)carbamoyl)-5-oxooctahydro-1H-pyrrolo[1,2-a]azepin-6-yl)carbamoyl)benzo[b]thiophen-5-yl)difluoromethyl)phosphonic acid] |  |  |
| 300 to 3000 | 1000 to 10000 | Cn1cc(C2CN(C(=O)[C@@H]3CC[C@@H]4CCC[C@H](NC(=O)c5cc6cc(C(F)(F)P(=O)(O)O)ccc6s5)C(=O)N43)CCO2)cn1 (stereo partly shown) [Compound 1123] |  |  |
| ≤ 300 | 100 to 1000 | O=C(N[C@H]1CCC[C@H]2CC[C@@H](C(=O)N3CCOC(c4cccnc4)C3)N2C1=O)c1cc2cc(C(F)(F)P(=O)(O)O)ccc2s1 (stereo partly drawn) [Compound 1124, (difluoro(2-(((3S,6S,9aS)-5-oxo-3-(2-(pyridin-3-yl)morpholine-4-carbonyl)octahydro-1H-pyrrolo[1,2-a]azepin-6-yl)carbamoyl)benzo[b]thiophen-5-yl)methyl)phosphonic acid] |  |  |
| 300 to 3000 | < 100 | O=C(N[C@H]1CCC[C@H]2CC[C@@H](C(=O)N3CCN(c4cccnc4)CC34CC4)N2C1=O)c1cc2cc(C(F)(F)P(=O)(O)O)ccc2s1 [Compound 1125, (difluoro(2-(((3S,6S,9aS)-5-oxo-3-(7-(pyridin-3-yl)-4,7-diazaspiro[2.5]octane-4-carbonyl)octahydro-1H-pyrrolo[1,2-a]azepin-6-yl)carbamoyl)benzo[b]thiophen-5-yl)methyl)phosphonic acid] |  |  |
| 300 to 3000 | 100 to 1000 | Cn1cnnc1C1CN(C(=O)[C@@H]2CC[C@@H]3CCC[C@H](NC(=O)c4cc5cc(C(F)(F)P(=O)(O)O)ccc5s4)C(=O)N32)CCO1 (stereo partly drawn) [Compound 1126, (difluoro(2-(((3S,6S,9aS)-3-(2-(4-methyl-4H-1,2,4-triazol-3-yl)morpholine-4-carbonyl)-5-oxooctahydro-1H-pyrrolo[1,2-a]azepin-6-yl)carbamoyl)benzo[b]thiophen-5-yl)methyl)phosphonic acid] |  |  |
| 300 to 3000 | 100 to 1000 | Cc1nnc(C2CN(C(=O)[C@@H]3CC[C@@H]4CCC[C@H](NC(=O)c5cc6cc(C(F)(F)P(=O)(O)O)ccc6s5)C(=O)N43)CCO2)o1 (stereo partly drawn) [Compound 1127, (difluoro(2-(((3S,6S,9aS)-3-(2-(5-methyl-1,3,4-oxadiazol-2-yl)morpholine-4-carbonyl)-5-oxooctahydro-1H-pyrrolo[1,2-a]azepin-6-yl)carbamoyl)benzo[b]thiophen-5-yl)methyl)phosphonic acid] |  |  |

| Compound | IC50 ([1]; probe 5-FAM-Ap[…]-NH2 2 nM) [nM] | IC50 [2] [nM] | IC50 (pY705-STAT3 in PBMC) [nM] | IC50 [1, 3] [nM] |
| --- | --- | --- | --- | --- |
| ((S)-(2- (((3S,6S,9aS)-3- ((6S,7R)-7-cyano-6- (pyridin-3-yl)-4- azaspiro[2.4] heptane-4- carbonyl)-5- oxooctahydro-1H- pyrrolo[1,2- a]azepin-6- yl)carbamoyl)benzo [b]thiophen-5- yl)fluoromethyl) phosphonic acid [Compound 838] |  | 1000 to 10000 |  | ≤ 300 |
| (difluoro(2- (((3S,6S,10aS)-3- ((1R,5S,6S)-6-(5- methyl-1,3,4- oxadiazol-2-yl)-3- azabicyclo[3.1.0] hexane-3- carbonyl)-5- oxodecahydropyrrolo [1,2-a]azocin-6- yl)carbamoyl)benzo [b]thiophen-5- yl)methyl)phosphon ic acid [Compound 804] |  | 100 to 1000 |  | 300 to 3000 |
| (difluoro(2- (((3S,6S,10aS)-5- oxo-3-((1R,5S,6R)- 6-phenyl-3- azabicyclo[3.1.0] hexane-3- carbonyl)decahydro pyrrolo[1,2- a]azocin-6- yl)carbamoyl)benzo [b]thiophen-5- yl)methyl) phosphonic acid [Compound 805] |  | 100 to 1000 |  | 3000 to 30000 |
